Values of other authors, collected in article PMC10318822, “Phase 1 dose-escalation study to evaluate the safety, tolerability, pharmacokinetics, and anti-tumor activity of FCN-159 in adults with neurofibromatosis type 1-related unresectable plexiform neurofibromas” (BMC Medicine, 2023).
Where two headings read alike, the source gives them in different places.

What was measured:
patients [1] = settings: in vivo; cited from earlier work
[2] = cited from earlier work; for RP2D: twice daily
NF1-related PN [3] = settings: cited from earlier work
patients [4] = system: patients; set-up: method as in PMID 20215549; settings: cited from earlier work
NF1-related PN [5] = system: NF1-related PN; set-up: method as in PMID 33507822; settings: adult patients with NF1 and progressive PN, 2 mg/m^2 twice daily, n = 8/19; cited from earlier work

Compound | Patients reporting AEs of CTCAE grade 3 or above (patients [1]) | Patients with acneiform dermatitis (patients [1]) [%] | Visual function AEs (patients [1]) [%] | Dose proportionality of plasma concentration increase [2] | Terminal half-life [2] [h] | Time to Cmax ([2]; human, in vivo) [h] | RP2D [2] [mg/m^2] | Partial responses (PRs) (NF1-related PN [3]; interim results, phase II study in adults (NCT02407405), n = 16/23) [%] | Response rate (NF1-related PN [3]; pediatric patients with NF1-related PN) | Partial responses (PRs) (NF1-related PN [3]; phase I study, children, 20–30 mg/m^2 twice daily, n = 17/24) [%] | Partial responses (PRs) (NF1-related PN [3]; phase II trial, n = 34/50) [%] | Blurred vision (patients [4]) [%] | Patients with rash (patients [4]) [%] | Visual disturbance (patients [4]) [%] | Terminal half-life, average [2] [h] | Response rate (NF1-related PN [5]) [%]
Cn1cnc2c(F)c(Nc3ccc(Br)cc3Cl)c(C(=O)NOCCO)cc21 [selumetinib] | up to 71.4% | 62.5 | 17.9 | less than dose-proportional | 6.0 to 6.9 | 1.00 to 1.10 | 25 | 69 | 40–70% | 71 | 68 |  |  |  |  | 
O=C(NOC[C@H](O)CO)c1ccc(F)c(F)c1Nc1ccc(I)cc1F [mirdametinib] |  |  |  |  | 4.6 to 18.0 |  | 2 |  |  |  |  | 10.6 | 78.8 | 13.6 | 7.8 | 42
